Drawing on ChEMBL document CHEMBL3616388, “Discovery of novel nonpeptide allosteric inhibitors interrupting the interaction of CDK2/cyclin A3 by virtual screening and bioassays” (Bioorg Med Chem Lett, 2015), this text covers inhibition, IC50 and Activity for 15 molecules.

Test [1] deals with T1, Cyclin-dependent kinase 2 (Homo sapiens, UniProt P24941). Put plainly: Binding affinity to N-terminal His-tagged recombinant human CDK2 (1 to 298 amino acid residues) expressed in Escherichia coli BL21 assessed as inhibition of interaction with cyclin A3 by measuring HHASPRK phosphorylation at 100 uM by ADP-Glo Max assay relative to control.
Test [2] concerns the target T1, Cyclin-dependent kinase 2. In words: Binding affinity to N-terminal His-tagged recombinant human CDK2 (1 to 298 amino acid residues) expressed in Escherichia coli BL21 assessed as inhibition of interaction with cyclin A3 by measuring 250 uM HHASPRK phosphorylation by ADP-Glo Max assay in presence of 75 uM ATP.
Test [3] relates to A549. Put plainly: Cell cycle arrest in human A549 cells assessed as accumulation at G2/M phase at 25 uM after 72 hrs by propidium iodide staining-based flow cytometric analysis (reference value: 19.79%). It counts as functional.
Test [4] concerns A549. Put plainly: Cell cycle arrest in human A549 cells assessed as accumulation at G2/M phase at 50 uM after 72 hrs by propidium iodide staining-based flow cytometric analysis (reference value: 19.79%). It counts as functional.
Test [5] deals with A549. In words: Cell cycle arrest in human A549 cells assessed as accumulation at S phase at 50 uM after 72 hrs by propidium iodide staining-based flow cytometric analysis (reference value: 11.53%). It counts as functional.
For test [6], the system named is A549. Put plainly: Cell cycle arrest in human A549 cells assessed as accumulation at G2/M phase at 200 uM after 72 hrs by propidium iodide staining-based flow cytometric analysis (reference value: 19.79%). It counts as functional.
Test [7] deals with A549. Put plainly: Cell cycle arrest in human A549 cells assessed as accumulation at S phase at 25 uM after 72 hrs by propidium iodide staining-based flow cytometric analysis (reference value: 11.53%). It counts as functional.
The target in test [8] is Cyclin-dependent kinase 2 (Homo sapiens, UniProt P24941, R150A). In words: Binding affinity to human CDK2 R150A mutant expressed in Escherichia coli BL21 assessed as inhibition of interaction with cyclin A3 by measuring HHASPRK phosphorylation by ADP-Glo Max assay.
Test [9] deals with T1, Cyclin-dependent kinase 2. Put plainly: Binding affinity to N-terminal His-tagged recombinant human CDK2 (1 to 298 amino acid residues) expressed in Escherichia coli BL21 assessed as inhibition of interaction with cyclin A3 by measuring 250 uM HHASPRK phosphorylation by ADP-Glo Max assay in presence of 750 uM ATP.
The test system of test [10] is A549. Put plainly: Cell cycle arrest in human A549 cells assessed as accumulation at G0/G1 phase at 25 uM after 72 hrs by propidium iodide staining-based flow cytometric analysis (reference value: 68.68%). It counts as functional.
For test [11], the system named is A549. Put plainly: Cell cycle arrest in human A549 cells assessed as accumulation at G0/G1 phase at 200 uM after 72 hrs by propidium iodide staining-based flow cytometric analysis (reference value: 68.68%). It counts as functional.
Test [12] concerns A549. In words: Cell cycle arrest in human A549 cells assessed as accumulation at G0/G1 phase at 10 uM after 72 hrs by propidium iodide staining-based flow cytometric analysis (reference value: 68.68%). It counts as functional.
Test [13] concerns the target T1, Cyclin-dependent kinase 2. Put plainly: Binding affinity to N-terminal His-tagged recombinant human CDK2 (1 to 298 amino acid residues) expressed in Escherichia coli BL21 assessed as inhibition of interaction with cyclin A3 by measuring 2.5 mM HHASPRK phosphorylation by ADP-Glo Max assay in presence of 75 uM ATP.
Test [14] deals with A549. Put plainly: Cell cycle arrest in human A549 cells assessed as accumulation at S phase at 200 uM after 72 hrs by propidium iodide staining-based flow cytometric analysis (reference value: 11.53%). It counts as functional.
In test [15] the test system is A549. Put plainly: Cell cycle arrest in human A549 cells assessed as accumulation at S phase at 10 uM after 72 hrs by propidium iodide staining-based flow cytometric analysis (reference value: 11.53%). It counts as functional.
Test [16] has as its target Cyclin-dependent kinase 2 (Homo sapiens, UniProt P24941, Y180A). Put plainly: Binding affinity to human CDK2 Y180A mutant expressed in Escherichia coli BL21 assessed as inhibition of interaction with cyclin A3 by measuring HHASPRK phosphorylation by ADP-Glo Max assay.
Test [17] has as its system MDA-MB-231. Put plainly: Cytotoxicity against human MDA-MB-231 cells assessed as cell viability after 72 hrs by MTS assay. It counts as functional, cell-based.
Test [18] addresses T1, Cyclin-dependent kinase 2. Put plainly: Binding affinity to GST-tagged recombinant human CDK2 (1 to 298 amino acid residues) expressed in Escherichia coli BL21 assessed as inhibition of interaction with His-tagged cyclin A3 preincubated overnight with GST-tagged protein followed by His-tagged cyclin A3 addition by GST pull down assay.
Test [19] concerns A549. Put plainly: Cell cycle arrest in human A549 cells assessed as accumulation at G0/G1 phase at 50 uM after 72 hrs by propidium iodide staining-based flow cytometric analysis (reference value: 68.68%). It counts as functional.
Test [20] has as its system HepG2. In words: Cytotoxicity against human HepG2 cells assessed as cell viability after 72 hrs by MTS assay. It counts as functional, cell-based.
For test [21], the target named is T1, Cyclin-dependent kinase 2. Put plainly: Binding affinity to N-terminal His-tagged recombinant human CDK2 (1 to 298 amino acid residues) expressed in Escherichia coli BL21 assessed as inhibition of interaction with cyclin A3 by measuring 1.25 mM HHASPRK phosphorylation by ADP-Glo Max assay in presence of 75 uM ATP.
Test [22] concerns the target T1, Cyclin-dependent kinase 2. Put plainly: Binding affinity to N-terminal His-tagged recombinant human CDK2 (1 to 298 amino acid residues) expressed in Escherichia coli BL21 assessed as inhibition of interaction with cyclin A3 by measuring 250 uM HHASPRK phosphorylation by ADP-Glo Max assay in presence of 375 uM ATP.
The subject of test [23] is A549. In words: Cell cycle arrest in human A549 cells assessed as accumulation at G2/M phase at 10 uM after 72 hrs by propidium iodide staining-based flow cytometric analysis (reference value: 19.79%). It counts as functional.
Test [24] deals with A549. Put plainly: Cytotoxicity against human A549 cells assessed as cell viability after 72 hrs by MTS assay. It counts as functional, cell-based.

Molecules are shown by their SMILES.

Regarding `CCOC(=O)C(Cc1ccc(OC)c([N+](=O)[O-])c1)NC(=O)CCC(=O)Nc1ccc(S(N)(=O)=O)cc1` (centres undefined), the inhibition in [1] is under 5%.

For `Cc1ccc(S(=O)(=O)Nc2ccc(C(=O)N3N=C(c4c(-c5ccccc5)c5cc(Br)ccc5[nH]c4=O)CC3c3ccccc3)cc2)cc1` (centres undefined), in test [1], the inhibition is under 5%.

For the molecule `Cn1c(=O)[nH]c(=O)c2c1nc(N/N=C1/C(=O)Nc3ccccc31)n2CC(O)COc1ccccc1` (centres undefined), the inhibition in [1] was under 5%.

On to `CSc1ccc(/C=N/c2cc([N+](=O)[O-])ccc2O)cc1`, for which the IC50 in test [2] turned out to be 52.1 µM; in [8] it was 885 µM; in test [9] it was 55.1 µM; in test [13], 69.8 µM; in test [16] it was 151 µM; in test [21] it was 58.1 µM. In addition, in [22], the IC50 amounted to 78.3 µM. Moreover, the Activity in test [3] is 12.83%; in [4], 12.99%; in test [5], 26.21%; in [6], 15.2%; in test [7], 21.91%; in test [10] it was 65.26%. The Activity in test [11] was 43.49%; in test [12], 66.03%; in test [14], 41.3%; in test [15], 15.21%; in [17], “Dose-dependent effect”; in [18], “Dose-dependent effect”. The Activity in test [19] is 60.8%; in [20] it was “Dose-dependent effect”; in test [23], 18.76%; in test [24], “Dose-dependent effect”. The inhibition in test [1] amounted to 65.5%.

As for `O=C(CSc1nc2ccc(NC(=O)CSCC(=O)Nc3ccc4ccccc4c3)cc2s1)NCCOc1ccccc1`, the inhibition in test [1] is under 5%.

Consider `Cc1ccccc1C(=O)N(Cc1ccc(C(F)(F)F)cc1)c1ccc(CC(=O)NCc2ccc(F)cc2)cc1`, for which the inhibition in test [1] was 37.5%.

With `OC(CN1CCN(CC(O)Cn2c3ccc(Br)cc3c3cc(Br)cc(Br)c32)CC1)Cn1c2ccccc2c2ccccc21` (centres undefined), the inhibition in test [1] turned out to be 31%.

For the molecule `COc1ccccc1OCCOc1ccccc1/C=c1\sc2n(c1=O)C(c1ccccc1)C(C(=O)Nc1ccccc1)=C(C)N=2` (centres undefined), the inhibition in test [1] is under 5%.

On to `Cc1cc(C)nc(NS(=O)(=O)c2ccc(NC(=O)CCCCC(=O)Nc3ccc(S(=O)(=O)Nc4nc(C)cc(C)n4)cc3)cc2)n1`, for which the inhibition in [1] came to 38%.

Turning to `C/C(Cc1ccccc1)=N\Nc1nnc2c(n1)[nH]c1ccccc12`, the inhibition in test [1] was 35.2%.

Turning to `CN1C(=O)c2cccc3c(S(=O)(=O)NCCC(=O)O)ccc1c23`, the inhibition in test [1] came out at 5.54%.

On to `CC(=O)C1=C(O)C(=O)N(CO)C1c1ccccc1` (centres undefined), for which the inhibition in [1] was under 5%.

Turning to `CCN(C(=O)CCNC(=O)Cn1cnc2ccccc2c1=O)c1cccc(C(F)(F)F)c1`, the inhibition in [1] amounted to 8.39%.

For the molecule `Cc1[nH]c2ccccc2c1/C=N/c1ccccc1C(=O)O`, in [1], the inhibition is under 5%.

Turning to `CCOc1cc(C(=O)Nc2ccc(S(=O)(=O)Nc3nc(C)cc(C)n3)cc2)cc(OCC)c1OCC`, in [2], the IC50 amounted to 105 µM. The inhibition in test [1] is 62.3%.
